Experimental data: US7786141B2 (Vertex Pharmaceuticals Incorporated, priority 2004, dated 2010)

Experiments:
M4 muscarinic receptor = biological target: T1, M4 muscarinic receptor (Homo sapiens, UniProt P08173); test: Functional mobilization of intracellular calcium (FLIPR) in M4-CHO cells; format: cell-based; details: Table 4; for Emax: 100% efficacy is the maximum response obtained with the Carbachol control; for M4 Activity: modulating M4 receptor
T1 construct: expressed in transfected cells; host or cells: CHO (M4-CHO)
T1 sequence (P08173 1-479): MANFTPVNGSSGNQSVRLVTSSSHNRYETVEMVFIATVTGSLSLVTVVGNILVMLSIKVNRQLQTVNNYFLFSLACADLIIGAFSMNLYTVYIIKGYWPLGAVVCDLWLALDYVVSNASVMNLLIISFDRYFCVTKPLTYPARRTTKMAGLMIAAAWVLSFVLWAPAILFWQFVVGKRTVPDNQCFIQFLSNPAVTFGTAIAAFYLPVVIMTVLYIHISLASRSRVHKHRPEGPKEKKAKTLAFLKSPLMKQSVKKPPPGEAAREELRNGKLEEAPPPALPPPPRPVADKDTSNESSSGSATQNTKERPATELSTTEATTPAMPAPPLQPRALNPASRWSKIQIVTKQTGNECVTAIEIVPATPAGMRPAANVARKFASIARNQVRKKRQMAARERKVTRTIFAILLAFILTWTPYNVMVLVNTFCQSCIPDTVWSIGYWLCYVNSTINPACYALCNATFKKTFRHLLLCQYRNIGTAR
Summary of the method: (§1)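 Steps: seed M1- or M4-CHO cells 18-24 hrs ahead; load calcium dye with 1 mM probenecid; add test compound (0.5% DMSO final), either alone for agonism or 15 min before EC80 carbachol for inhibition; record FLIPR fluorescence for 60 sec.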

M1 muscarinic receptor = biological target: T2, M1 muscarinic receptor (Homo sapiens, UniProt P11229); test: Functional mobilization of intracellular calcium (FLIPR) in M1-CHO cells; format: cell-based; details: Table 4; for Emax: 100% efficacy is the maximum response obtained with the Carbachol control; for M1 Activity: modulating M1 receptor
T2 construct: expressed in transfected cells; host or cells: CHO (M1-CHO)
T2 sequence (P11229 1-460): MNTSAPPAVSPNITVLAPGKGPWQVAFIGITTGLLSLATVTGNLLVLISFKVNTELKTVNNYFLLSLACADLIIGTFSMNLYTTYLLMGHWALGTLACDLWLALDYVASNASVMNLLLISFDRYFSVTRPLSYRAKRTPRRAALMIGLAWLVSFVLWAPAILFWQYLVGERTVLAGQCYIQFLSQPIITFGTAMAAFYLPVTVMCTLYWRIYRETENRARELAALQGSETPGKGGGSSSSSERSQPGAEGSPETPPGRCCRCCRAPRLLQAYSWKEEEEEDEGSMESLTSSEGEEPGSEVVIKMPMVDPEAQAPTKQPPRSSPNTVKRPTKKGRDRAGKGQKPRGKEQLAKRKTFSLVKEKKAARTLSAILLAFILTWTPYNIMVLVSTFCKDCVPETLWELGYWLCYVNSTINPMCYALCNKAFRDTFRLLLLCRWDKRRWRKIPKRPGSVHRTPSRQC
Summary of the method: as §1

Compound: O=C1CCCN1[C@H]1CCC2(CCN([C@@H]3CC4CC[C@H]3C4)CC2)c2ccccc21 [compound 766]
- Emax (M4 muscarinic receptor): 25 to 100%
- M4 Activity (M4 muscarinic receptor): xxx (activity was measured to be less than 2.0 μM)
- Emax (M1 muscarinic receptor): 25 to 100%
- M1 Activity (M1 muscarinic receptor): xxx (activity was measured to be less than 2.0 μM)

Compound: CN(C)C(=O)N1CC2(CCN(C3CCN(C(=O)c4ccc(F)cc4)CC3)CC2)c2cc(F)ccc21 [compound 767]
- Emax (M4 muscarinic receptor): < 25%
- M4 Activity (M4 muscarinic receptor): x (activity was measured to be greater than 5.0 μM)
- Emax (M1 muscarinic receptor): 25 to 100%
- M1 Activity (M1 muscarinic receptor): x (activity was measured to be greater than 5.0 μM)

Compound: CCOC(=O)N1CCC(N2CCC3(CC2)CN(C(C)=O)c2c(-c4ccc(C)cc4)cccc23)CC1 [compound 768]
- Emax (M4 muscarinic receptor): < 25%
- M4 Activity (M4 muscarinic receptor): x (activity was measured to be greater than 5.0 μM)
- Emax (M1 muscarinic receptor): 25 to 100%
- M1 Activity (M1 muscarinic receptor): x (activity was measured to be greater than 5.0 μM)

Compound: CCOC(=O)N1CCC(N2CCC3(CC2)CN(C(C)=O)c2ccc(Br)cc23)CC1 [compound 769]
- Emax (M4 muscarinic receptor): 25 to 100%
- M4 Activity (M4 muscarinic receptor): xxx (activity was measured to be less than 2.0 μM)
- Emax (M1 muscarinic receptor): 25 to 100%
- M1 Activity (M1 muscarinic receptor): xxx (activity was measured to be less than 2.0 μM)

Compound: COc1cccc(C(=O)N2CCC(N3CCC4(CC3)CN(C(=O)N(C)C)c3ccc(F)cc34)CC2)c1 [compound 770]
- Emax (M4 muscarinic receptor): < 25%
- M4 Activity (M4 muscarinic receptor): xx (activity was measured to be between 2.0 μM and 5.0 μM)
- Emax (M1 muscarinic receptor): 25 to 100%
- M1 Activity (M1 muscarinic receptor): xxx (activity was measured to be less than 2.0 μM)

Compound: COC(=O)N1CCC(N2CCC3(CC2)CN(C(C)=O)c2ccc(F)cc23)C1 (stereo not drawn) [compound 771]
- Emax (M4 muscarinic receptor): < 25%
- M4 Activity (M4 muscarinic receptor): x (activity was measured to be greater than 5.0 μM)
- Emax (M1 muscarinic receptor): < 25%
- M1 Activity (M1 muscarinic receptor): x (activity was measured to be greater than 5.0 μM)

Compound: CN(C)C(=O)N1CC2(CCN(C3CCCN(C(=O)OCCF)CC3)CC2)c2cc(F)ccc21 (stereo not drawn) [compound 772]
- Emax (M4 muscarinic receptor): 25 to 100%
- M4 Activity (M4 muscarinic receptor): xxx (activity was measured to be less than 2.0 μM)
- Emax (M1 muscarinic receptor): 25 to 100%
- M1 Activity (M1 muscarinic receptor): xxx (activity was measured to be less than 2.0 μM)

Compound: CS(=O)(=O)N[C@H]1CCC2(CCN(CC3CCCCC3)CC2)c2ccccc21 [compound 773]
- Emax (M4 muscarinic receptor): 25 to 100%
- M4 Activity (M4 muscarinic receptor): xxx (activity was measured to be less than 2.0 μM)
- Emax (M1 muscarinic receptor): 25 to 100%
- M1 Activity (M1 muscarinic receptor): xxx (activity was measured to be less than 2.0 μM)

Compound: CCOC(=O)N1CCC(N2CCC3(CC2)C[C@H](NC(C)=O)c2cc(OC)c(OC)cc23)CC1 [compound 774]
- Emax (M4 muscarinic receptor): 25 to 100%
- M4 Activity (M4 muscarinic receptor): x (activity was measured to be greater than 5.0 μM)
- Emax (M1 muscarinic receptor): 25 to 100%
- M1 Activity (M1 muscarinic receptor): x (activity was measured to be greater than 5.0 μM)

Compound: C#CCOC(=O)N1CC[C@@H](CN2CCC3(CC2)CN(C(=O)N(C)C)c2ccc(F)cc23)C1 [compound 775]
- Emax (M4 muscarinic receptor): 25 to 100%
- M4 Activity (M4 muscarinic receptor): xxx (activity was measured to be less than 2.0 μM)
- Emax (M1 muscarinic receptor): 25 to 100%
- M1 Activity (M1 muscarinic receptor): xxx (activity was measured to be less than 2.0 μM)

Compound: CC#CCOC(=O)N1C2CCC1CC(N1CCC3(CC1)CN(C(C)=O)c1ccccc13)C2 (stereo not drawn) [compound 777]
- Emax (M4 muscarinic receptor): 25 to 100%
- M4 Activity (M4 muscarinic receptor): xxx (activity was measured to be less than 2.0 μM)
- Emax (M1 muscarinic receptor): 25 to 100%
- M1 Activity (M1 muscarinic receptor): xxx (activity was measured to be less than 2.0 μM)

Compound: O=C(N[C@H]1CC2(CCN(C3CCCCC3)CC2)c2ccccc21)C1CC1 [compound 779]
- Emax (M4 muscarinic receptor): < 25%
- M4 Activity (M4 muscarinic receptor): xxx (activity was measured to be less than 2.0 μM)
- Emax (M1 muscarinic receptor): 25 to 100%
- M1 Activity (M1 muscarinic receptor): xx (activity was measured to be between 2.0 μM and 5.0 μM)

Compound: CC(=O)N[C@H]1CC2(CCN(CC(=O)N3CCC(=O)N3)CC2)c2ccccc21 [compound 780]
- Emax (M4 muscarinic receptor): < 25%
- M4 Activity (M4 muscarinic receptor): x (activity was measured to be greater than 5.0 μM)
- Emax (M1 muscarinic receptor): < 25%
- M1 Activity (M1 muscarinic receptor): x (activity was measured to be greater than 5.0 μM)

Compound: CN(C)C(=O)N1CC2(CCN(C3CCN(C(=O)C4COc5ccccc5O4)CC3)CC2)c2cc(F)ccc21 (stereo not drawn) [compound 781]
- Emax (M4 muscarinic receptor): < 25%
- M4 Activity (M4 muscarinic receptor): x (activity was measured to be greater than 5.0 μM)
- Emax (M1 muscarinic receptor): 25 to 100%
- M1 Activity (M1 muscarinic receptor): x (activity was measured to be greater than 5.0 μM)

Compound: CC(=O)N[C@H]1CC2(CCN(CC(=O)N3C[C@@H](C)O[C@@H](C)C3)CC2)c2ccccc21 [compound 782]
- Emax (M4 muscarinic receptor): < 25%
- M4 Activity (M4 muscarinic receptor): x (activity was measured to be greater than 5.0 μM)
- Emax (M1 muscarinic receptor): < 25%
- M1 Activity (M1 muscarinic receptor): x (activity was measured to be greater than 5.0 μM)

Compound: CCOC(=O)N1CCC(N2CCC3(CC2)CC(=O)c2cc(C)ccc23)CC1 [compound 783]
- Emax (M4 muscarinic receptor): 25 to 100%
- M4 Activity (M4 muscarinic receptor): xx (activity was measured to be between 2.0 μM and 5.0 μM)
- Emax (M1 muscarinic receptor): 25 to 100%
- M1 Activity (M1 muscarinic receptor): xxx (activity was measured to be less than 2.0 μM)

Compound: CC(=O)N[C@H]1CC2(CCN(CCC3=C(C)CCCC3(C)C)CC2)c2ccccc21 [compound 784]
- Emax (M4 muscarinic receptor): < 25%
- M4 Activity (M4 muscarinic receptor): x (activity was measured to be greater than 5.0 μM)
- Emax (M1 muscarinic receptor): < 25%
- M1 Activity (M1 muscarinic receptor): x (activity was measured to be greater than 5.0 μM)

Compound: CCOC(=O)N1CCC(CN2CCC3(CC2)CN(C(C)=O)c2c(C)cccc23)CC1 [compound 785]
- Emax (M4 muscarinic receptor): 25 to 100%
- M4 Activity (M4 muscarinic receptor): xxx (activity was measured to be less than 2.0 μM)
- Emax (M1 muscarinic receptor): 25 to 100%
- M1 Activity (M1 muscarinic receptor): xx (activity was measured to be between 2.0 μM and 5.0 μM)

Compound: O=C1CC2(CCN([C@@H]3C[C@@H]4CC[C@@H]3C4)CC2)c2cc(Cl)ccc21 [compound 787]
- Emax (M4 muscarinic receptor): 25 to 100%
- M4 Activity (M4 muscarinic receptor): xxx (activity was measured to be less than 2.0 μM)
- Emax (M1 muscarinic receptor): 25 to 100%
- M1 Activity (M1 muscarinic receptor): xxx (activity was measured to be less than 2.0 μM)

Compound: Clc1ccc2c(c1)C1(CCN(CC3CC4C=CC3C4)CC1)C[C@@H]2NCC1CC2C=CC1C2 (stereo partly drawn) [compound 788]
- Emax (M4 muscarinic receptor): 25 to 100%
- M4 Activity (M4 muscarinic receptor): xx (activity was measured to be between 2.0 μM and 5.0 μM)
- Emax (M1 muscarinic receptor): 25 to 100%
- M1 Activity (M1 muscarinic receptor): xx (activity was measured to be between 2.0 μM and 5.0 μM)

Compound: CN(C)C(=O)N[C@H]1CCC2(CCN([C@@H]3C[C@@H]4CC[C@H]3C4)CC2)c2ccccc21 [compound 789]
- Emax (M4 muscarinic receptor): 25 to 100%
- M4 Activity (M4 muscarinic receptor): x (activity was measured to be greater than 5.0 μM)
- Emax (M1 muscarinic receptor): 25 to 100%
- M1 Activity (M1 muscarinic receptor): x (activity was measured to be greater than 5.0 μM)

Compound: CN(C)C(=O)N1CC2(CCN(C3CCN(c4ncccn4)CC3)CC2)c2cc(F)ccc21 [compound 790]
- Emax (M4 muscarinic receptor): 25 to 100%
- M4 Activity (M4 muscarinic receptor): xxx (activity was measured to be less than 2.0 μM)
- Emax (M1 muscarinic receptor): 25 to 100%
- M1 Activity (M1 muscarinic receptor): xx (activity was measured to be between 2.0 μM and 5.0 μM)

Compound: CN(C)C(=O)N1CC2(CCN(C3CCN(C(=O)c4ccncc4)CC3)CC2)c2cc(F)ccc21 [compound 791]
- Emax (M4 muscarinic receptor): < 25%
- M4 Activity (M4 muscarinic receptor): x (activity was measured to be greater than 5.0 μM)
- Emax (M1 muscarinic receptor): 25 to 100%
- M1 Activity (M1 muscarinic receptor): xx (activity was measured to be between 2.0 μM and 5.0 μM)

Compound: CC(=O)N[C@H]1CC2(CCN(CC(=O)N3CCCCC3)CC2)c2ccccc21 [compound 792]
- Emax (M4 muscarinic receptor): 25 to 100%
- M4 Activity (M4 muscarinic receptor): x (activity was measured to be greater than 5.0 μM)
- Emax (M1 muscarinic receptor): 25 to 100%
- M1 Activity (M1 muscarinic receptor): x (activity was measured to be greater than 5.0 μM)

Compound: CCC#CCOC(=O)N1CC[C@@H](CN2CCC3(CC2)CN(C(C)=O)c2cccc(C)c23)C1 [compound 793]
- Emax (M4 muscarinic receptor): 25 to 100%
- M4 Activity (M4 muscarinic receptor): xxx (activity was measured to be less than 2.0 μM)
- Emax (M1 muscarinic receptor): 25 to 100%
- M1 Activity (M1 muscarinic receptor): xxx (activity was measured to be less than 2.0 μM)

Compound: CC(=O)N1CC2(CCN(C3CCN(c4ncc(C)s4)CC3)CC2)c2ccccc21 [compound 794]
- Emax (M4 muscarinic receptor): < 25%
- M4 Activity (M4 muscarinic receptor): x (activity was measured to be greater than 5.0 μM)
- Emax (M1 muscarinic receptor): < 25%
- M1 Activity (M1 muscarinic receptor): x (activity was measured to be greater than 5.0 μM)

Compound: CN(C)C(=O)N1CC2(CCN(C3CCN(C(=O)c4cccnc4)CC3)CC2)c2cc(F)ccc21 [compound 795]
- Emax (M4 muscarinic receptor): < 25%
- M4 Activity (M4 muscarinic receptor): x (activity was measured to be greater than 5.0 μM)
- Emax (M1 muscarinic receptor): < 25%
- M1 Activity (M1 muscarinic receptor): xx (activity was measured to be between 2.0 μM and 5.0 μM)
